Test results: patent US7407760B2 (priority 2003, dated 2008)
Read-outs that look alike come from different tables or passages of the source.

How the values were obtained:
Hamster Sc237 PrP^Sc = Hamster Sc237 PrP^Sc (Mesocricetus auratus, UniProt P04273); format: biochemical
PrP^Sc [1] = molecular target: T1, PrP^Sc (Mesocricetus auratus, UniProt P04273); format: biochemical, hamster; settings: for effect of chelating compounds on PrP^Sc amplification: no metal added; for IC50: read-out: IC50 of inhibition of PrP^Sc amplification; for effect on inhibition by CuCl2, added prior to CuCl2: 4 mM EDTA or 50 mM imidazole prior to 1 μM CuCl2; for effect on inhibition by CuCl2, added shortly after CuCl2: after 1 μM CuCl2
PrP^C = PrP^C (Mesocricetus auratus, UniProt P04273)
PrP^C/PrP^Sc binding = PrP^C/PrP^Sc binding (Mesocricetus auratus, UniProt P04273)
[2] = molecular target: Syrian hamster Sc237 PrP27-30 / immunopurified hamster PrP^C (Mesocricetus auratus, UniProt P04273); format: biochemical
PrP^Sc [3] = molecular target: T1, PrP^Sc; format: biochemical, hamster
PrP^Sc [4] = molecular target: T1, PrP^Sc; format: biochemical, hamster; remark: listed apart in the source
PrP^Sc [5] = molecular target: T1, PrP^Sc

Chain of Syrian hamster Sc237 PrP27-30 / immunopurified hamster PrP^C (P04273 23-231 limits assumed): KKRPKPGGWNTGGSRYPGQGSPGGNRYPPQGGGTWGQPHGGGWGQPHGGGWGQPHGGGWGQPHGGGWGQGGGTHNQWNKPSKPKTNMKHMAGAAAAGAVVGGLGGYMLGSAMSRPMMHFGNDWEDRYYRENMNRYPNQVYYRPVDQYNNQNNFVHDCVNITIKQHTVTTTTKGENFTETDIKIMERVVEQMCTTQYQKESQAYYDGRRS
Chain of Hamster Sc237 PrP^Sc (P04273 23-231 limits assumed): as above
T1 sequence (P04273 23-231 limits assumed): as above
Chain of PrP^C/PrP^Sc binding (P04273 23-231 limits assumed): as above
Chain of PrP^C (P04273 23-231 limits assumed): as above

Molecule: heparinase III
- effect of added enzyme on PrP^Sc amplification (Hamster Sc237 PrP^Sc): no effect

Molecule: DNase
- effect of added enzyme on PrP^Sc amplification (Hamster Sc237 PrP^Sc): did not decrease PrP^Sc amplification

Molecule: Nc1ccn([C@@H]2O[C@H](CO)[C@@H](OP(=O)(O)O)[C@H]2O)c(=O)n1 [3′-cytidine monophosphate]
- inhibition of PrP^Sc amplification by RNase end-product nucleotides (Hamster Sc237 PrP^Sc; concentrations up to 1 mM): Neither of these nucleotides inhibited PrP^Sc amplification

Molecule: Cc1ccc2ccc3ccc(C)nc3c2n1 [neocuproine]
- effect of chelating compounds on PrP^Sc amplification (PrP^Sc [1]): not influenced

Molecule: [Cl][Cu][Cl] [CuCl2]
- quantity or protease-resistance of input PrP^C or PrP^Sc molecules by themselves (PrP^C): did not affect the quantity or protease-resistance
- PrP^C/PrP^Sc binding, ratio of PrP^C to PrP27-30 in the pellet (PrP^C/PrP^Sc binding): 0.46
- IC50 (PrP^Sc [1]): ~1 µM

Molecule: glycogen
- stimulation of PrP^Sc amplification using purified substrate [2]: did not stimulate the formation of PrP^Sc

Molecule: Nc1nc2c(ncn2[C@@H]2O[C@H](CO)[C@H]3OP(=O)(O)O[C@H]32)c(=O)[nH]1 [cyclic 2′,3′-GMP, 2′,3′-cyclic guanosine monophosphate]
- inhibition of PrP^Sc amplification by RNase end-product nucleotides (Hamster Sc237 PrP^Sc): Neither of these nucleotides inhibited PrP^Sc amplification

Molecule: Sodium pentosan polysulfate [pentosan sulfate]
- stimulation of PrP^Sc amplification [2]: stimulated PrP^Sc amplification only moderately

Molecule: poly(C)
- stimulation of PrP^Sc amplification using purified substrate [2]: failed to stimulate PrP^Sc amplification at all concentrations tested

Molecule: heparan sulfate proteoglycan
- reconstitution of PrP^Sc amplification (PrP^Sc [3]): failed to reconstitute PrP^Sc amplification
- stimulation of PrP^Sc amplification [2]: stimulated PrP^Sc amplification only moderately

Molecule: O=C(O)CN(CCN(CC(=O)O)CC(=O)O)CC(=O)O [EDTA]
- effect on inhibition by CuCl2, added prior to CuCl2 (PrP^Sc [1]): prevented inhibition of PrP^Sc amplification
- effect on inhibition by CuCl2, added shortly after CuCl2 (PrP^Sc [1]): failed to rescue PrP^Sc amplification
- effect of chelating compounds on PrP^Sc amplification (PrP^Sc [1]): not influenced

Molecule: c1c[nH]cn1 [imidazole]
- effect on PrP^Sc amplification of preparation “X” (PrP^Sc [4]; 5 mM): restored PrP^Sc amplification
- effect on PrP^Sc amplification of preparation “X” (PrP^Sc [4]; 50 mM): restored the ability of this preparation to serve as a substrate
- effect on PrP^Sc amplification of preparation “X” (PrP^Sc [4]; 250 mM): inhibited PrP^Sc amplification
- effect on inhibition by CuCl2, added prior to CuCl2 (PrP^Sc [1]): prevented inhibition of PrP^Sc amplification
- effect on inhibition by CuCl2, added shortly after CuCl2 (PrP^Sc [1]): failed to rescue PrP^Sc amplification

Molecule: polyglutamic acid [polyglutamate]
- reconstitution of PrP^Sc amplification (PrP^Sc [3]; benzonase-pretreated normal brain homogenate): failed to reconstitute PrP^Sc amplification
- level of stimulation compared with control stimulation by total hamster RNA ([2]; purified substrate): less than the level of control stimulation

Molecule: [Cl-].[Cl-].[Zn+2] [ZnCl2]
- IC50 (PrP^Sc [1]): ~10 µM

Molecule: polyadenylic acid [poly(A)]
- reconstitution of PrP^Sc amplification (PrP^Sc [3]): failed to reconstitute PrP^Sc amplification
- propagation of PrP^Sc conformation in serial PMCA (PrP^Sc [5]): stimulated the propagation process
- concentration at which PrP^Sc amplification was stimulated [2]: 1 µg/mL
- threshold size required for stimulation of PrP^Sc amplification [2]: ~300 bases

Molecule: [Cl][Mn][Cl] [MnCl2]
- effect of divalent metal compound on PrP^Sc amplification (PrP^Sc [1]): neither MnCl2 nor CoCl2 affected PrP^Sc amplification
- effect of pre-addition on CuCl2-mediated inhibition of PrP^Sc amplification (PrP^Sc [1]): did not influence the potency of CuCl2-mediated inhibition

Molecule: poly(U)
- stimulation of PrP^Sc amplification using purified substrate [2]: potently stimulated PrP^Sc amplification

Molecule: heparan sulfate
- stimulation of PrP^Sc amplification in the presence of copper [2]: No apparent stimulation
- stimulation of PrP^Sc amplification using purified substrate [2]: no effect

Molecule: apyrase
- effect of added enzyme on PrP^Sc amplification (Hamster Sc237 PrP^Sc): no effect
